Where a SMILES comes first, the peptide text is derived from it. The star is where a group is joined. Cbz = O=C(OCc1ccccc1)*
Key:
HA-FKBP12 = target: T1, HA-FKBP12 (Homo sapiens, UniProt P62942); experiment: HA-FKBP12 abundance by Western blotting in transfected HEK293T cells; format: cell-based; conditions: for quantity of HA-FKBP12 and FLAG-DCAF1 in inhibitor-treated cells: HEK293T co-expressing HA-FKBP12 and FLAG-DCAF1
T1 construct: expressed in transfected cells; host or cells: HEK293T
Excerpt: (A) Left, western blots showing concentration-dependent effects of YT47R (upper) and YT41R (lower) on FKBP12 abundance in HEK293T cells expressing HA-FBKP12 with or without co-expression of FLAG-DCAF1. Right, quantification of HA-FKBP12 abundance in the indicated experimental groups. (B) Left, western blots showing effects of YT47R versus YT47S (upper) and YT41R versus YT41S (lower) on FKBP12 abundance in HEK293T cells co-expressing HA-FBKP12 and FLAG-DCAF1. Right, quantification of HA-FKBP12 abundance in the indicated experimental groups. (C) Western blots showing effects of YT47R (left blots) and YT41R (right blots) on FKBP12 abundance in HEK293T cells co-expressing HA-FBKP12 and either FLAG-DCAF1-WT or FLAG-DCAF1-C1113A mutant. Quantification of HA-FKBP12 abundance in the indicated experimental groups is shown in the adjacent bar graphs. For (A-C), FKBP12 abundance was determined at 24 h post-treatment with compounds, and data are mean values±SEM for three independent experiments. Statistical significance was calculated with unpaired two-tailed Student's t-tests comparing YT41R/YT47R- and DMSO-treated cells. ***P<0.001, ****P<0.0001.
(A) Left, western blots showing effects of proteasome (MG132) and Neddylation (MLN4924) inhibitors (1 h pre-treatment) on YT47R- and YT41R-dependent degradation of FKBP12 in HEK293T cells co-expressing HA-FBKP12 and FLAG-DCAF1. FKBP12 abundance was determined at 24 h post-treatment with YT47R or YT41R. Right, quantification of HA-FKBP12 abundance in the indicated experimental groups. (B) Left, western blots showing effects of the FKBP12 ligand SLF (20 μM) or DCAF1 ligand MY-11B (1 h pre-treatment with 20 μM SLF or 5 μM MY-11B) on YT47R- and YT41R-dependent degradation of FKBP12 in HEK293T cells co-expressing HA-FBKP12 and FLAG-DCAF1. FKBP12 abundance was determined at 24 h post-treatment with YT47R or YT41R. Right, quantification of HA-FKBP12 abundance in the indicated experimental groups. (C) Left, western blots showing effects of MY-11A or MY-11B (5 μM, 1 h pre-treatment) on YT47R- and YT41R-dependent degradation of FKBP12 in HEK293T cells co-expressing HA-FBKP12 and FLAG-DCAF1. FKBP12 abundance was determined at 24 h post-treatment with YT47R or YT41R. Right, quantification of HA-FKBP12 abundance in the indicated experimental groups. For (A-C), data are mean values±SEM for three-five independent experiments. Statistical significance was calculated with unpaired two-tailed Student's t-tests comparing YT41R/YT47R- and DMSO-treated cells. ****P<0.0001.
Figure S3. Concentration-dependent degradation of FKBP12 by DCAF1-directed electrophilic PROTACs. Top, western blots showing concentration-dependent effects of YT47R and YT41R on FKBP12 abundance in HEK293T cells co-expressing HA-FBKP12 and FLAG-DCAF1. Data are mean values±SEM for four independent experiments. Statistical significance was calculated with unpaired two-tailed Student's t-tests comparing YT41R/YT47R- and DMSO-treated cells. *P<0.1, **P<0.01, ***P<0.001, ****P<0.0001.
Figure S4. Time-dependent degradation of FKBP12 by DCAF1-directed electrophilic PROTACs. Top, western blots showing time-dependent effects of YT47R and YT41R (2 μM each) on FKBP12 abundance in HEK293T cells co-expressing HA-FBKP12 and FLAG-DCAF1. Data are mean values±SEM for four independent experiments. Statistical significance was calculated with unpaired two-tailed Student's t-tests comparing YT41R/YT47R- and DMSO-treated cells. ****P<0.0001.
We next treated HEK293T cells co-transfected with FLAG epitope-tagged full length DCAF1 (a.a.'s 1-1507) and HA (hemagglutinin) epitope-tagged FKBP12 with a concentration range of YT41R or YT47R and, after 24 h, measured HA-FKBP12 abundance by Western blotting.

DCAF1_C1113 = target: T2, DCAF1_C1113 (Homo sapiens, UniProt Q9Y4B6); experiment: cysteine-directed MS-ABPP (IA-DTB probe) in primary human T cells; format: cell-based; conditions: 3 h; for reactivity with DCAF1_C1113: 20 μM compound
T2 construct: endogenous in cells; host or cells: primary human T cells
T2 sequence (Q9Y4B6 whole entry): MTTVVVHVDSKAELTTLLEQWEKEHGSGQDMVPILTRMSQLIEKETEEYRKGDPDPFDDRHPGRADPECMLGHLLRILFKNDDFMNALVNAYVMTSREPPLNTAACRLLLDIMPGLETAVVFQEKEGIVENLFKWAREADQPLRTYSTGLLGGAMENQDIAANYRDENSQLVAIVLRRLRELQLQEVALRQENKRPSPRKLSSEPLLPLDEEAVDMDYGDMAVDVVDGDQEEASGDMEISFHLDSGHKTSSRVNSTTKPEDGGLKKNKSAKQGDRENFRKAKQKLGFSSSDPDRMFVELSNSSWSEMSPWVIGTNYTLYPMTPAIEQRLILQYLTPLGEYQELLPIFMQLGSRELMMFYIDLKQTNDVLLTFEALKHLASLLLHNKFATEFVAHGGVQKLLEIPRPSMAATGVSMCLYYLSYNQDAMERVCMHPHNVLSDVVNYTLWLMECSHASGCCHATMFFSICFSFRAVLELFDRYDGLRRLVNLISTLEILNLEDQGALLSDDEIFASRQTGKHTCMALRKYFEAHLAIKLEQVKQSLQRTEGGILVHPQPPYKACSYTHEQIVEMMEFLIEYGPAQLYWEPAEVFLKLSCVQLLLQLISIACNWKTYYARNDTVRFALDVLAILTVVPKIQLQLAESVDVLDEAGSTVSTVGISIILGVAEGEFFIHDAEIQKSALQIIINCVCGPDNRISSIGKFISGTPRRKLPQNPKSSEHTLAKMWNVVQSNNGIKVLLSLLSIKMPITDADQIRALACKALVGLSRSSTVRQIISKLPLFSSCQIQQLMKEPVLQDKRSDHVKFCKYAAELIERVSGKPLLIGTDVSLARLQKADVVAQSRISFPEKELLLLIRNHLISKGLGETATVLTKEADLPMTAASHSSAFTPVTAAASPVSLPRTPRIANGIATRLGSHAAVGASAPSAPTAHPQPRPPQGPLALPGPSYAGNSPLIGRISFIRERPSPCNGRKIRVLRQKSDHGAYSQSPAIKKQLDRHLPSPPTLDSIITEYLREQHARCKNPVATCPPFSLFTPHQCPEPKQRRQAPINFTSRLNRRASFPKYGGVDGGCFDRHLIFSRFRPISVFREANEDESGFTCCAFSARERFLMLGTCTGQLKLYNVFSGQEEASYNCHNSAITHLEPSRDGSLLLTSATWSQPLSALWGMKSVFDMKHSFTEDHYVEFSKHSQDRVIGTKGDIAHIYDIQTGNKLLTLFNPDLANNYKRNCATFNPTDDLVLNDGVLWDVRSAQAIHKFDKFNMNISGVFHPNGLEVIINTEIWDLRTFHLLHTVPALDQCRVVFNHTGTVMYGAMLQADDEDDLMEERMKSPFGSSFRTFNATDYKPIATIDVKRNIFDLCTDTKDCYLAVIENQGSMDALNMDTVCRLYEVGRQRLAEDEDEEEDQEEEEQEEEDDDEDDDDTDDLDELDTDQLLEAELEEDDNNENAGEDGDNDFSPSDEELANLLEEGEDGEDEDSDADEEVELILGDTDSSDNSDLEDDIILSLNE
Description: (A) Structures of a set of stereochemically defined azetidine acrylamides MY-1A (1), MY-1B (2), MY-3A (3), and MY-3B (4). (B) Heat map showing cysteines that were substantially engaged by azetidine acrylamides (>75% by at least one compound) in human T cells (20 μM compound, 3 h) as determined by MS-ABPP using an iodoacetamide desthiobiotin (IA-DTB) probe following previously described methods^21. Red arrow marks DCAF1_C1113. (C) MS-ABPP quantification of IA-DTB labeling of DCAF1_C1113 from T cells treated with the indicated azetidine acrylamides (20 μM, 3 h) relative to control T cells treated with DMSO. (D) MS-ABPP quantification of IA-DTB labeling of the indicated cysteines in DCAF1 from T cells treated with MY-1B (20 μM, 3 h) relative to control T cells treated with DMSO. For (B-D), data represent average values (for C and D, average values±SEM) from three independent experiments each performed with two technical replicates, where cysteines were required to have been quantified in at least two experiments for interpretation.
Guided by the principles of diversity-oriented synthesis^22, specifically the design of compounds with densely functionalized and entropically constrained sp^3-rich cores bearing one or more stereocenters, we generated a set of stereoisomeric azetidine acrylamides (FIG. 1A) and screened these compounds by cysteine-directed MS-ABPP^23-26 in primary human T cells. Across more than 10000 quantified cysteines, these experiments uncovered several azetidine acrylamide-cysteine interactions (FIG. 1B and Dataset S1), including the stereo-(FIG. 1B, C) and site-(FIG. 1D) selective engagement of C1113 on the E3 ligase substrate adaptor DCAF1. […] Other quantified cysteines in DCAF1 were unaffected by MY-1B (FIG. 1D).

[1] = target: T3, recombinant DCAF1-WT (a.a.'s 1046-1396) (Homo sapiens, UniProt Q9Y4B6); experiment: gel-ABPP with recombinant purified DCAF1-WT doped into HEK293T cell proteome; format: binding; conditions: for block of MY-11B labeling of recombinant DCAF1 by pre-treatment: 6.25-100 μM, MY-11B 25 μM, 1 h
T3 construct: form of DCAF1 containing the WD40 domain (amino acids (a.a.'s) 1046-1396); made in house
T3 sequence (Q9Y4B6 1046-1396): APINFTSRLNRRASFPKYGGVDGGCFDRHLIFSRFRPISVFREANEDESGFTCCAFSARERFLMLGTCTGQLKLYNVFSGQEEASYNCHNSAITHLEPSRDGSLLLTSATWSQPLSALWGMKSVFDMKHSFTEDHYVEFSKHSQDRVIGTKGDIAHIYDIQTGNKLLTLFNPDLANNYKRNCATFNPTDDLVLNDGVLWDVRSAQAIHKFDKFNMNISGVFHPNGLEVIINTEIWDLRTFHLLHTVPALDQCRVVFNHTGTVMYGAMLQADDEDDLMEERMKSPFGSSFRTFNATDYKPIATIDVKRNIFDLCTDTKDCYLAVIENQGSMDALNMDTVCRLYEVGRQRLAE
T3 sequence (Q16531 whole entry partner, the tested form may be a part): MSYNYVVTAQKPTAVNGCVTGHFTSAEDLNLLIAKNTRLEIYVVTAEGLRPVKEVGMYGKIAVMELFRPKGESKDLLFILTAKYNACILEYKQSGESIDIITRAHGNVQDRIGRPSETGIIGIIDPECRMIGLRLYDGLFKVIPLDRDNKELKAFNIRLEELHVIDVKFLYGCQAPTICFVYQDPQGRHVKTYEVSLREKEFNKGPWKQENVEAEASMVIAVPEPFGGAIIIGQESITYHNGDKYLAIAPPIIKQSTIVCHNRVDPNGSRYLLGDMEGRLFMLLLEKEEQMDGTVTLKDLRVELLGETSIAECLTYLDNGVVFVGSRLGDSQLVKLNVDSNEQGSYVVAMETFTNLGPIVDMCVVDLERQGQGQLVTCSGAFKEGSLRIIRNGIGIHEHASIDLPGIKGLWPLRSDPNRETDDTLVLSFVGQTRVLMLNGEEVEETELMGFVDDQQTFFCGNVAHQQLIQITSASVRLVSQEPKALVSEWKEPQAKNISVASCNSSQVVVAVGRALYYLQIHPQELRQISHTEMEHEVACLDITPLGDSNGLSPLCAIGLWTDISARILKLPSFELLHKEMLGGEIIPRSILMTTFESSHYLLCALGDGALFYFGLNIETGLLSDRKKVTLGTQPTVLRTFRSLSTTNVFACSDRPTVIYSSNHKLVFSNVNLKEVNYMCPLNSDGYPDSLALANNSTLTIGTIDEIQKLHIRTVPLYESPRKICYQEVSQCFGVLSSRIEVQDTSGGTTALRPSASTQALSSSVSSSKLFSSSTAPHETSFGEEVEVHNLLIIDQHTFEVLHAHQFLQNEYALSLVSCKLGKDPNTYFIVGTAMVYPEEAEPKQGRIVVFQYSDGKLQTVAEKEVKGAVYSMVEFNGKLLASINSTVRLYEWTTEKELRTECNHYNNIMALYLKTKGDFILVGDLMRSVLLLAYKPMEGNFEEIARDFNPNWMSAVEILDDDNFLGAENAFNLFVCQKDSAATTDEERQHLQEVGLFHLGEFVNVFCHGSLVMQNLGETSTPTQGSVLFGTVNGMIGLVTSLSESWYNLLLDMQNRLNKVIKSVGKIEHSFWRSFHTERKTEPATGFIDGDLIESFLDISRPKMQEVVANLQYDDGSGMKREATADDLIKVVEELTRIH
Excerpt: FIG. 2 that azetidine acrylamides stereo- and site-selectively engage recombinant DCAF1_C1113. (A) Domain map of DCAF1 with the region used for recombinant protein studies marked in a bracket (a.a.'s 1046-1396) and C1113 highlighted in red. (B) Crystal structure of a DCAF1-Vpx complex (pdb: 5AJA). DCAF1 (a.a.'s 1046-1396) is shown in cyan, Vpx is shown in yellow, and C1113, which is located at the DCAF1-Vpx interface is shown in red. (C) Structures of alkyne-modified azetidine acrylamides MY-11A (5) and MY-11B (6). (D) Gel-ABPP showing the concentration-dependent reactivity of MY-11A and MY-11B (1 h) reactivity with recombinant, purified DCAF1-WT or the DCAF1-C1113A mutant (0.06 μg/μL of DCAF1 protein per sample) doped into HEK293T cell proteome (1 μg/μL). MY-11A/B labeling of proteins was visualized by CuAAC conjugation to an azide-rhodamine tag followed by SDS-PAGE and in-gel fluorescence scanning. Results are from a single experiment representative of two independent experiments. (E) Gel-ABPP showing the concentration-dependent effects of MY-1A and MY-1B on MY-11B reactivity with DCAF1-WT. Samples were treated with MY-1A/B for 2 h, followed by MY-11B (25 μM, 1 h) and analyzed as described in (D). Left, quantification of data presented as mean values±SEM from two independent experiments. Right, representative gel-ABPP results. (D, E) Lower images are Coomassie blue-stained gels corresponding to ABPP gels shown in upper images.
(A) Structures of candidate electrophilic PROTACs YT41R (7), YT41S (8), YT47R (9), and YT47S (10). (B) Gel-ABPP showing the concentration-dependent effects of YT41R and YT47R on MY-11B reactivity with DCAF1-WT protein (0.06 μg/μL of DCAF1 protein per sample) doped into HEK293T cell proteome (1 μg/μL). Also shown are the effects of YT41S and YT47S tested at a single concentration (100 μM). Samples were treated with heterobifunctional compounds for 2 h, followed by MY-11B (25 μM, 1 h) and analyzed as described in FIG. 2D. Left, representative gel-ABPP results. Lower image is Coomassie blue-stained gel corresponding to ABPP gel shown in upper image. Right, quantification of data presented as mean values±SEM from two independent experiments.
DCAF1 is a multi-domain substrate receptor for CRL4 ligases (FIG. 2A) that has diverse physiological and disease functions, including being co-opted by the HIV-2 virus to promote degradation of the antiviral host protein SAMHD1^27-28. […] We verified the stereo- and site-selective engagement of DCAF1_C1113 by azetidine acrylamides using alkynylated analogues of MY-1A and MY-1B (MY-11A (5) and MY-11B (6), respectively; FIG. 2C). For these experiments, we doped into HEK293T cell lysates a recombinantly expressed and purified form of DCAF1 containing the WD40 domain (amino acids (a.a.'s) 1046-1396), in complex with the CRL4 adaptor protein DDB1^31, and exposed these samples to varying concentrations of MY-11A or MY-11B. After 1 h, we assessed MY-11A and MY-11B engagement of DCAF1 by copper-catalyzed azide-alkyne cycloaddition (CuAAC)^32 with an azide-rhodamine reporter tag followed by SDS-PAGE and in-gel fluorescence scanning^33. […] We used gel-ABPP to quantify an in vitro target engagement value (TE50) of approximately 25 μM (95% C.I.=13-38 μM) for MY-1B labeling of DCAF1 (FIG. 2E, left).

T1 sequence (P62942 whole entry): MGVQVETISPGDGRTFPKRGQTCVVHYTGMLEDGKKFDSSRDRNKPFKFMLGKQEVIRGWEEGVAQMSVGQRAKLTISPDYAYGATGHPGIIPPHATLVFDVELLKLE

CC(C)C[C@@H](C=O)NC(=O)[C@H](CC(C)C)NC(=O)[C@H](CC(C)C)NC(=O)OCc1ccccc1 [MG132, reference compound] (Cbz-Leu-Leu-Leu-aldehyde)
effect on YT41R/YT47R-mediated degradation of HA-FKBP12 (HA-FKBP12; 5 μM, 1 h pre-treatment followed by 24 h co-treatment with YT41R/YT47R): blocked
quantity of HA-FKBP12 and FLAG-DCAF1 in inhibitor-treated cells (HA-FKBP12): increased quantities

NS(=O)(=O)OC[C@@H]1C[C@@H](n2ccc3c(N[C@H]4CCc5ccccc54)ncnc32)C[C@@H]1O [MLN4924, reference compound]
quantity of HA-FKBP12 and FLAG-DCAF1 in inhibitor-treated cells (HA-FKBP12): without causing alterations
effect on YT41R/YT47R-mediated degradation of HA-FKBP12 (HA-FKBP12; NAE inhibitor, 1 h pre-treatment): impaired

C=CC(=O)N1C[C@@H](c2ccc(Br)cc2)[C@H]1C(=O)Nc1cccc2cccnc12 [MY-1A, (2S,3R)-1-acryloyl-3-(4-bromophenyl)-N-(84uinoline-8-yl) azetidine-2-carboxamide]
reactivity with DCAF1_C1113 (DCAF1_C1113): inactive
block of MY-11B labeling of recombinant DCAF1 by pre-treatment ([1]; 2 h pre-treatment): not

C=CC(=O)N1C[C@H](c2ccc(Br)cc2)[C@@H]1C(=O)Nc1cccc2cccnc12 [MY-1B, (2R,3S)-1-acryloyl-3-(4-bromophenyl)-N-(84uinoline-8-yl) azetidine-2-carboxamide]
reactivity with DCAF1_C1113 (DCAF1_C1113): strongest reactivity
effect on other quantified cysteines in DCAF1 (DCAF1_C1113; 20 μM): unaffected
block of MY-11B labeling of recombinant DCAF1 by pre-treatment ([1]; 2 h pre-treatment): blocked
IC50 ([1]; gel-ABPP, 2 h pre-treatment, 95% C.I.=13-38 μM, read-out: in vitro target engagement value (TE50) for labeling of DCAF1): ~25 µM

C=CC(=O)N1C[C@@H](c2ccc(Br)cc2)[C@@H]1C(=O)Nc1cccc2cccnc12 [MY-3B, (2S,3S)-1-acryloyl-3-(4-bromophenyl)-N-(87uinoline-8-yl) azetidine-2-carboxamide]
reactivity with DCAF1_C1113 (DCAF1_C1113): weaker enantioselective interaction

CCC(C)(C)C(=O)C(=O)N1CCCC[C@H]1C(=O)O[C@H](CCc1ccc(OC)c(OC)c1)c1cccc(N)c1 [SLF, reference compound]
effect on YT41R and YT47R-mediated degradation of HA-FKBP12 (HA-FKBP12; 20 μM, 1 h pre-treatment): blocked

C=CC(=O)C1C[C@@H](c2ccc(C(=O)NCCOCCOCCNC(=O)COc3cccc([C@@H](CCc4ccc(OC)c(OC)c4)OC(=O)[C@@H]4CCCCN4C(=O)C(=O)C(C)(C)CC)c3)cc2)[C@H]1C(=O)Nc1cccc2cccnc12 (stereo partly shown) [YT41S]
inhibition of MY-11B probe reactivity with recombinant DCAF1 ([1]; 2 h, then MY-11B 25 μM 1 h, YT41S and YT47S at single concentration 100 μM): did not impair

Reference: patent publication US20260083722A1, “BIFUNCTIONAL DEGRADERS COMPRISING ELECTROPHILIC PROTACS THAT ENGAGE DCAF1 AND PHARMACEUTICAL COMPOSITIONS COMPRISING THE SAME” (THE SCRIPPS RESEARCH INSTITUTE, priority 2022, published 2026)
